# In ChEMBL document CHEMBL3046963, “Fungicidal Activity of 2-Aminochromone-3-carboxamides” (1990):
# Tested on: Pyricularia oryzae
# Assay: Fungicidal activity against Magnaporthe oryzae in rice seedlings assessed as control of rice blast at 500 ppm by preventive foliar treatment
# Format: functional
row,Compound,Activity [%]
1,CCC(C)c1ccc2oc(N)c(C(N)=O)c(=O)c2c1 (centres undefined),19
2,CC(C)(C)c1ccc2oc(N)c(C(N)=O)c(=O)c2c1,81
3,CC(C)c1ccc2oc(N)c(C(N)=O)c(=O)c2c1,74
4,C/C(=N/Nc1nc(C)cc(C)n1)c1ccccc1C [FERIMZONE],99

# Tested on: Rhizoctonia solani
# Assay: In vivo fungicidal activity against Rhizoctonia solani in rice seedlings assessed as control of sheath blight disease at 250 ppm by curative foliar treatment
# Format: functional
row,Compound,Activity [%]
1,NC(=O)c1c(N)oc2ccc(Cl)cc2c1=O,96
2,CCc1ccc2oc(N)c(C(N)=O)c(=O)c2c1,90
3,Cc1ccc2oc(N)c(C(N)=O)c(=O)c2c1,100
4,NC(=O)c1c(N)oc2ccccc2c1=O,100

# Tested on: Fusarium fujikuroi
# Assay: Fungicidal activity against Fusarium fujikuroi assessed as infected rice seedlings in seed disinfection against bakanae disease at 1000 ppm by soaking method
# Format: functional
row,Compound,Activity [%]
1,CCC(C)c1ccc2oc(N)c(C(N)=O)c(=O)c2c1 (centres undefined),6.5
2,CC(C)(C)c1ccc2oc(N)c(C(N)=O)c(=O)c2c1,3
3,CC(C)c1ccc2oc(N)c(C(N)=O)c(=O)c2c1,6

# Tested on: Nakataea oryzae
# Assay: Fungicidal activity against Magnaporthe salvinii by agar dilution method
# Format: functional
row,Compound,MIC [µg/mL]
1,O=c1[nH]cnc2oc3ccccc3c(=O)c12,> 100
2,NC(=O)c1c(N)oc2c(Br)cc(Br)cc2c1=O,> 100
3,CCC(C)c1ccc2oc(N)c(C(N)=O)c(=O)c2c1 (centres undefined),0.78
4,NC(=O)c1c(N)oc2ccc(Cl)cc2c1=O,12.5
5,NC(=O)c1c(N)oc2c(Cl)cc(Cl)cc2c1=O,> 100
6,CC(C)(C)c1ccc2oc(N)c(C(N)=O)c(=O)c2c1,0.78
7,CC(C)(C)c1ccc2oc3nc[nH]c(=O)c3c(=O)c2c1,> 100
8,CCCC(C)(C)c1ccc2oc(N)c(C(N)=O)c(=O)c2c1,6.25
9,CC(C)c1ccc2oc(N)c(C(N)=O)c(=O)c2c1,3.12
10,C/C(=N/Nc1nc(C)cc(C)n1)c1ccccc1C [FERIMZONE],1.56
11,Cc1ccc2oc(N)c(C(N)=O)c(=O)c2c1,6.25
12,NC(=O)c1c(N)oc2ccccc2c1=O,12.5

# Tested on: Pyricularia oryzae
# Assay: Fungicidal activity against Magnaporthe oryzae in rice seedlings assessed as control of rice blast at 500 ppm by curative foliar treatment
# Format: functional
row,Compound,Activity [%]
1,CCC(C)c1ccc2oc(N)c(C(N)=O)c(=O)c2c1 (centres undefined),96
2,CC(C)(C)c1ccc2oc(N)c(C(N)=O)c(=O)c2c1,96
3,CC(C)c1ccc2oc(N)c(C(N)=O)c(=O)c2c1,94
4,C/C(=N/Nc1nc(C)cc(C)n1)c1ccccc1C [FERIMZONE],100

# Tested on: Bipolaris oryzae
# Assay: Fungicidal activity against Bipolaris oryzae by agar dilution method
# Format: functional
row,Compound,MIC [µg/mL]
1,O=c1[nH]cnc2oc3ccccc3c(=O)c12,> 100
2,NC(=O)c1c(N)oc2c(Br)cc(Br)cc2c1=O,> 100
3,CCC(C)c1ccc2oc(N)c(C(N)=O)c(=O)c2c1 (centres undefined),25
4,NC(=O)c1c(N)oc2ccc(Cl)cc2c1=O,> 100
5,NC(=O)c1c(N)oc2c(Cl)cc(Cl)cc2c1=O,> 100
6,CC(C)(C)c1ccc2oc(N)c(C(N)=O)c(=O)c2c1,6.25
7,CC(C)(C)c1ccc2oc3nc[nH]c(=O)c3c(=O)c2c1,> 100
8,CCCC(C)(C)c1ccc2oc(N)c(C(N)=O)c(=O)c2c1,> 100
9,CCc1ccc2oc(N)c(C(N)=O)c(=O)c2c1,25
10,CC(C)c1ccc2oc(N)c(C(N)=O)c(=O)c2c1,100
11,C/C(=N/Nc1nc(C)cc(C)n1)c1ccccc1C [FERIMZONE],25
12,Cc1ccc2oc(N)c(C(N)=O)c(=O)c2c1,25
13,NC(=O)c1c(N)oc2ccccc2c1=O,> 100

# Tested on: Fusarium fujikuroi
# Assay: Fungicidal activity against Fusarium fujikuroi by agar dilution method
# Format: functional
row,Compound,MIC [µg/mL]
1,CCC(C)c1ccc2oc(N)c(C(N)=O)c(=O)c2c1 (centres undefined),> 100
2,CC(C)(C)c1ccc2oc(N)c(C(N)=O)c(=O)c2c1,12.5
3,CC(C)c1ccc2oc(N)c(C(N)=O)c(=O)c2c1,> 100
4,C/C(=N/Nc1nc(C)cc(C)n1)c1ccccc1C [FERIMZONE],> 100

# Tested on: Pyricularia oryzae
# Assay: Fungicidal activity against Magnaporthe oryzae by agar dilution method
# Format: functional
row,Compound,MIC [µg/mL]
1,O=c1[nH]cnc2oc3ccccc3c(=O)c12,> 100
2,NC(=O)c1c(N)oc2c(Br)cc(Br)cc2c1=O,> 100
3,CCC(C)c1ccc2oc(N)c(C(N)=O)c(=O)c2c1 (centres undefined),0.78
4,NC(=O)c1c(N)oc2ccc(Cl)cc2c1=O,3.12
5,NC(=O)c1c(N)oc2c(Cl)cc(Cl)cc2c1=O,> 100
6,CC(C)(C)c1ccc2oc(N)c(C(N)=O)c(=O)c2c1,0.78
7,CC(C)(C)c1ccc2oc3nc[nH]c(=O)c3c(=O)c2c1,> 100
8,CCCC(C)(C)c1ccc2oc(N)c(C(N)=O)c(=O)c2c1,1.56
9,CCc1ccc2oc(N)c(C(N)=O)c(=O)c2c1,0.78
10,CC(C)c1ccc2oc(N)c(C(N)=O)c(=O)c2c1,1.56
11,C/C(=N/Nc1nc(C)cc(C)n1)c1ccccc1C [FERIMZONE],3.12
12,Cc1ccc2oc(N)c(C(N)=O)c(=O)c2c1,6.25
13,NC(=O)c1c(N)oc2ccccc2c1=O,25

# Tested on: Rhizoctonia solani
# Assay: In vivo fungicidal activity against Rhizoctonia solani in rice seedlings assessed as control of sheath blight disease at 500 ppm by curative foliar treatment
# Format: functional
row,Compound,Activity [%]
1,O=c1[nH]cnc2oc3ccccc3c(=O)c12,0
2,NC(=O)c1c(N)oc2c(Br)cc(Br)cc2c1=O,76
3,CCC(C)c1ccc2oc(N)c(C(N)=O)c(=O)c2c1 (centres undefined),79
4,NC(=O)c1c(N)oc2c(Cl)cc(Cl)cc2c1=O,100
5,CC(C)(C)c1ccc2oc(N)c(C(N)=O)c(=O)c2c1,100
6,CC(C)(C)c1ccc2oc3nc[nH]c(=O)c3c(=O)c2c1,0
7,CCCC(C)(C)c1ccc2oc(N)c(C(N)=O)c(=O)c2c1,100
8,CC(C)c1ccc2oc(N)c(C(N)=O)c(=O)c2c1,85
9,C/C(=N/Nc1nc(C)cc(C)n1)c1ccccc1C [FERIMZONE],100

# Tested on: Rhizoctonia solani
# Assay: Fungicidal activity against Rhizoctonia solani by agar dilution method
# Format: functional
row,Compound,MIC [µg/mL]
1,O=c1[nH]cnc2oc3ccccc3c(=O)c12,> 100
2,NC(=O)c1c(N)oc2c(Br)cc(Br)cc2c1=O,> 100
3,CCC(C)c1ccc2oc(N)c(C(N)=O)c(=O)c2c1 (centres undefined),6.25
4,NC(=O)c1c(N)oc2ccc(Cl)cc2c1=O,6.25
5,NC(=O)c1c(N)oc2c(Cl)cc(Cl)cc2c1=O,100
6,CC(C)(C)c1ccc2oc(N)c(C(N)=O)c(=O)c2c1,0.78
7,CC(C)(C)c1ccc2oc3nc[nH]c(=O)c3c(=O)c2c1,> 100
8,CCCC(C)(C)c1ccc2oc(N)c(C(N)=O)c(=O)c2c1,> 100
9,CCc1ccc2oc(N)c(C(N)=O)c(=O)c2c1,3.25
10,CC(C)c1ccc2oc(N)c(C(N)=O)c(=O)c2c1,100
11,C/C(=N/Nc1nc(C)cc(C)n1)c1ccccc1C [FERIMZONE],50
12,Cc1ccc2oc(N)c(C(N)=O)c(=O)c2c1,6.25
13,NC(=O)c1c(N)oc2ccccc2c1=O,12.5
